Values of other authors as cited in US20070275382A1, “Biomarkers for the Efficacy of Somatostatin Analogue Treatment” (priority 2003, published 2007).
Where two headings read alike, the source gives them in different places.

Key:
[1] = target: hSST-2 (Homo sapiens, UniProt P30874); details: background statement, cited from earlier work
[2] = target: hSST-3 (Homo sapiens, UniProt P32745); details: background statement; cited from earlier work
Chain of hSST-3 (P32745 whole entry): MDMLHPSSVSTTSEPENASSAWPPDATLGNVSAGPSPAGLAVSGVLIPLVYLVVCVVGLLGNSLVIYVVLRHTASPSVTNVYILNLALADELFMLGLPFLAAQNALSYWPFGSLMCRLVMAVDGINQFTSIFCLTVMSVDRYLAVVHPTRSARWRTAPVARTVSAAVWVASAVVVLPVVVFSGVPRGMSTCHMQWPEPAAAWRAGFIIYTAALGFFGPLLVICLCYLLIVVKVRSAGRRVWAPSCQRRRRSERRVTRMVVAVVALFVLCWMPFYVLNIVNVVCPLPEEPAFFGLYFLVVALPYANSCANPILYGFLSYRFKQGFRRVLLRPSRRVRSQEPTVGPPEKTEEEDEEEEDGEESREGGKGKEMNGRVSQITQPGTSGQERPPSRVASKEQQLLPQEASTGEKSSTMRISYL

Chain of hSST-2 (P30874 whole entry): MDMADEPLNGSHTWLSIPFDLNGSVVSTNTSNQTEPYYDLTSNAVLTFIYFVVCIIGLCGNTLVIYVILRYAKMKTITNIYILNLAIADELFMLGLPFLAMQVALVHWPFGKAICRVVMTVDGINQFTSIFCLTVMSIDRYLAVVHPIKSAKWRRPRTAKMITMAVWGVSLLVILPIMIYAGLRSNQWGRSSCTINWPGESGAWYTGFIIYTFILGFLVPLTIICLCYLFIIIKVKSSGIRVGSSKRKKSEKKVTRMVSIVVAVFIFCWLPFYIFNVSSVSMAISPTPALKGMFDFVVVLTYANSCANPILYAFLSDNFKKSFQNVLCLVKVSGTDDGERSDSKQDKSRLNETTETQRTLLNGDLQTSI

For `C[C@@H](O)[C@@H]1NC(=O)[C@H](CCCCN)NC(=O)[C@@H](Cc2c[nH]c3ccccc23)NC(=O)[C@H](Cc2ccccc2)NC(=O)[C@@H](NC(=O)[C@H](N)Cc2ccccc2)CSSC[C@@H](C(=O)N[C@H](CO)[C@@H](C)O)NC1=O` [octreotide], the “affinity/binding to somatostatin receptor subtype 2 (SSTR2)” value (shortened to “affinity/binding”) [1] is given as “selective high affinity”, the “affinity/binding” value ([1]; listed as Sandostatin®) is given as “binds mainly to SSTR2” and the “binding to SSTR3” value [2] is given as “to some extent”.

In the case of `CC(C)[C@@H]1NC(=O)[C@H](CCCCN)NC(=O)[C@@H](Cc2c[nH]c3ccccc23)NC(=O)[C@H](Cc2ccc(O)cc2)NC(=O)[C@@H](NC(=O)[C@H](N)Cc2ccc3ccccc3c2)CSSC[C@@H](C(=O)N[C@H](C(N)=O)[C@@H](C)O)NC1=O` [lanreotide], the “affinity/binding” value [1] is listed as “selective high affinity”.
